Assay results from patent US20260317324A1, “BIFUNCTIONAL COMPOUNDS FOR DEGRADING BRAF VIA UBIQUITIN PROTEOSOME PATHWAY” (Nurix Therapeutics, Inc., priority 2023, published 2026).

Target: T1, BRAF V600E (Homo sapiens, UniProt P15056, V600E)
T1 construct: endogenous C-terminal HiBiT fusion tag on BRAF V600E allele; endogenous in cells; host or cells: A375 clone 1F10 (CRISPR-Cas9 knock-in of the HiBiT tag; parental A375 from ATCC)
Experiment: BRAF HiBiT degradation assay, C-terminal HiBiT-tagged BRAF V600E A375 cells (clone 1F10), Nano-Glo HiBiT Lytic assay
Format: cell-based
Details: for Dmax: A-375
Method in brief: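 A375 cells (clone 1F10, endogenous C-terminal HiBiT on BRAF V600E) were seeded at 10,000 cells/well, grown 24 h, then dosed in duplicate with an 11-point series from 1 μM to 0.01 nM (0.2% DMSO). Nano-Glo HiBiT lytic luminescence was normalised to DMSO and wildtype-A375 background; DC50 was read at 50% protein remaining, alongside observed Dmax.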

[1] = A375 (BRAF V600E), DC50 at 50%: fitted conc. at Y=50
[2] = A375 (BRAF V600E), percentage protein degraded at maximal compound effect relative to DMSO

T1 sequence (P15056 whole entry V600E, the tested form may be a part): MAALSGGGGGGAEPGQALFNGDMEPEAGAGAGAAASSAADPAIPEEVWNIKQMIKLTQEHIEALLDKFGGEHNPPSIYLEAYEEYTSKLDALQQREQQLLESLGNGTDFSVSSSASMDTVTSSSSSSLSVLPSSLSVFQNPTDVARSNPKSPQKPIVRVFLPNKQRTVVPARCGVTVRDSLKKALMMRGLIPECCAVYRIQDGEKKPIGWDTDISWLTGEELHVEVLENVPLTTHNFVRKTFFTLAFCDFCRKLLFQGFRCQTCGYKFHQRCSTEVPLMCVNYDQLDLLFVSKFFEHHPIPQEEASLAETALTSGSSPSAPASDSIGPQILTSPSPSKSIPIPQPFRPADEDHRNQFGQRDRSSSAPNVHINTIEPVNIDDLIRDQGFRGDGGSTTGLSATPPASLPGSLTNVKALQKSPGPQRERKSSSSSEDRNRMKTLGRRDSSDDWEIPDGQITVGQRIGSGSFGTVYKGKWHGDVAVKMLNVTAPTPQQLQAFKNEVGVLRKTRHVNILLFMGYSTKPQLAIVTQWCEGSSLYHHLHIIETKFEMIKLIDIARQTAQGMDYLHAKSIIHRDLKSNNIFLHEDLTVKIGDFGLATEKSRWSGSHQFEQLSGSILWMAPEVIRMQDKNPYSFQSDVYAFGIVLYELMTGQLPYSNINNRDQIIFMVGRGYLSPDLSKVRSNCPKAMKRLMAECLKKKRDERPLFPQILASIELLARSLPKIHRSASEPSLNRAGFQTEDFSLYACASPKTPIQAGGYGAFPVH

Row | SMILES | DC50 [1] [nM] | Dmax [2] [%] | DC50 (A375 (BRAF V600E, Class 1), DC50 at 50% degradation) [nM] | Dmax (A375 (BRAF V600E, Class 1), observed Dmax, % protein degraded relative to DMSO control) [%]
1 | CCCS(=O)(=O)Nc1cccc(-c2nc(C(C)(C)C)sc2-c2ccnc(Nc3cnn(CC4CCN(CC5CCN(c6ccc(C(=O)NC7CCC(=O)NC7=O)nc6)CC5)CC4)c3)n2)c1F (racemic) [Compound 82, Rac-5-(4-{[4-({4-[(4-{2-tert-butyl-4-[2-fluoro-3-(propane-1-sulfonamido)phenyl]-1,3-thiazol-5-yl}pyrimidin-2-yl)amino]-1H-pyrazol-1-yl}methyl)piperidin-1-yl]methyl}piperidin-1-yl)-N-[(3R)-2,6-dioxopiperidin-3-yl]pyridine-2-carboxamide] | 10 to 50 | 30 to 70 |  | 
2 | O=C1CCC(c2ccc(N3CCC(CN4CCN(c5ccc(-n6cc(-c7cc(F)cc(NS(=O)(=O)N8CCCC8)c7F)c(-c7ccncc7)n6)c(F)c5)CC4)CC3)nc2)C(=O)N1 (racemic) [Compound 341, Rac-N-{3-[1-(4-{4-[(1-{5-[(3R)-2,6-dioxopiperidin-3-yl]pyridin-2-yl}piperidin-4-yl)methyl]piperazin-1-yl}-2-fluorophenyl)-3-(pyridin-4-yl)-1H-pyrazol-4-yl]-2,5-difluorophenyl}pyrrolidine-1-sulfonamide] |  |  | < 10 | > 70
3 | CCCS(=O)(=O)Nc1cccc(-c2nc(C3CCN(C(=O)[C@H]4CC[C@H](CN5CCc6cc(C7CCC(=O)NC7=O)ccc6C5)CC4)CC3)sc2-c2ccnc(N)n2)c1F (mixture of isomers) [Compound 222, N-{3-[5-(2-aminopyrimidin-4-yl)-2-{1-[(1r,4r)-4-({6-[(3RS)-2,6-dioxopiperidin-3-yl]-1,2,3,4-tetrahydroisoquinolin-2-yl}methyl)cyclohexanecarbonyl]piperidin-4-yl}-1,3-thiazol-4-yl]-2-fluorophenyl}propane-1-sulfonamide] | > 500 | 30 to 70 |  | 
4 | CCCS(=O)(=O)Nc1cccc(-c2nc(C(C)(C)C)sc2-c2ccnc(Nc3cccc(C4CCN(C(=O)CN5CCc6cc(C7CCC(=O)NC7=O)ccc6C5)CC4)c3)n2)c1F (racemic) [Compound 104, Rac-N-(3-{2-tert-butyl-5-[2-({3-[1-(2-{6-[(3R)-2,6-dioxopiperidin-3-yl]-1,2,3,4-tetrahydroisoquinolin-2-yl}acetyl)piperidin-4-yl]phenyl}amino)pyrimidin-4-yl]-1,3-thiazol-4-yl}-2-fluorophenyl)propane-1-sulfonamide] | 50 to 500 | 30 to 70 |  | 
5 | CCCS(=O)(=O)Nc1cccc(-c2nc(-c3ccc(N4CCN(C(=O)CC5CCN(c6ccc(C7CCC(=O)NC7=O)cn6)CC5)CC4)cc3)sc2-c2ccnc(N)n2)c1F (racemic) [Compound 189, Rac-N-{3-[5-(2-aminopyrimidin-4-yl)-2-(4-{4-[2-(1-{5-[(3R)-2,6-dioxopiperidin-3-yl]pyridin-2-yl}piperidin-4-yl)acetyl]piperazin-1-yl}phenyl)-1,3-thiazol-4-yl]-2-fluorophenyl}propane-1-sulfonamide] | < 10 | > 70 |  | 
6 | CCCS(=O)(=O)Nc1cccc(-c2nc(C(C)(C)C)sc2-c2ccnc(Nc3ccc4c(c3)CCN(C(=O)CN3CCN(c5cc(C6CCC(=O)NC6=O)ccn5)CC3)C4)n2)c1F (racemic) [Compound 120, Rac-N-(3-{2-tert-butyl-5-[2-({2-[2-(4-{4-[(3R)-2,6-dioxopiperidin-3-yl]pyridin-2-yl}piperazin-1-yl)acetyl]-1,2,3,4-tetrahydroisoquinolin-6-yl}amino)pyrimidin-4-yl]-1,3-thiazol-4-yl}-2-fluorophenyl)propane-1-sulfonamide] | 50 to 500 | 30 to 70 |  | 
7 | CCCS(=O)(=O)Nc1cccc(-c2nc(C(C)(C)C)sc2-c2ccnc(NC3CC4(C3)CN(C(=O)C3CN(C5CCN(c6ccc7c(c6)C(=O)N(C6CCC(=O)NC6=O)C7=O)CC5)C3)C4)n2)c1F (racemic) [Compound 154, Rac-N-(3-{2-tert-butyl-5-[2-({2-[1-(1-{2-[(3R)-2,6-dioxopiperidin-3-yl]-1,3-dioxo-2,3-dihydro-1H-isoindol-5-yl}piperidin-4-yl)azetidine-3-carbonyl]-2-azaspiro[3.3]heptan-6-yl}amino)pyrimidin-4-yl]-1,3-thiazol-4-yl}-2-fluorophenyl)propane-1-sulfonamide] | 50 to 500 | > 70 |  | 
